Test results as given in PubChem BioAssay (NCI).
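48-hour exposure; five concentrations; linearly interpolated endpoints. Definition used: TGI = concentration required for complete inhibition of growth.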

Columns and labels:
Assay in all cases: NCI tumour cell line growth inhibition, 48 h
786-0 renal = system: 786-0 renal
A498 renal = system: A498 renal
A549 NSCLC = system: A549 NSCLC
ACHN renal = system: ACHN renal
BT-549 breast = system: BT-549 breast
CAKI-1 renal = system: CAKI-1 renal
CCRF-CEM leukemia = system: CCRF-CEM leukemia
DU-145 prostate = system: DU-145 prostate
EKVX NSCLC = system: EKVX NSCLC
HCC-2998 colon = system: HCC-2998 colon
HCT-116 colon = system: HCT-116 colon
HCT-15 colon = system: HCT-15 colon
HL-60(TB) leukemia = system: HL-60(TB) leukemia
HOP-62 NSCLC = system: HOP-62 NSCLC
HOP-92 NSCLC = system: HOP-92 NSCLC
HS 578T breast = system: HS 578T breast
HT29 colon = system: HT29 colon
K-562 leukemia = system: K-562 leukemia
KM12 colon = system: KM12 colon
LOX IMVI melanoma = system: LOX IMVI melanoma
M14 melanoma = system: M14 melanoma
MALME-3M melanoma = system: MALME-3M melanoma
MCF7 breast = system: MCF7 breast
MDA-MB-435 = system: MDA-MB-435
MDA-N = system: MDA-N
MOLT-4 leukemia = system: MOLT-4 leukemia
NCI-H23 lung = system: NCI-H23 lung
NCI-H522 lung = system: NCI-H522 lung
NCI/ADR-RES ovarian = system: NCI/ADR-RES ovarian
OVCAR-3 ovarian = system: OVCAR-3 ovarian
OVCAR-4 ovarian = system: OVCAR-4 ovarian
OVCAR-8 ovarian = system: OVCAR-8 ovarian
PC-3 prostate = system: PC-3 prostate
RPMI-8226 leukemia = system: RPMI-8226 leukemia
RXF 393 renal = system: RXF 393 renal
SF-268 CNS = system: SF-268 CNS
SF-295 CNS = system: SF-295 CNS
SF-539 CNS = system: SF-539 CNS
SK-MEL-28 melanoma = system: SK-MEL-28 melanoma
SK-MEL-5 melanoma = system: SK-MEL-5 melanoma
SN12C renal = system: SN12C renal
SNB-19 CNS = system: SNB-19 CNS
SNB-75 CNS = system: SNB-75 CNS
SR leukemia = system: SR leukemia
SW-620 colon = system: SW-620 colon
T-47D breast = system: T-47D breast
UACC-257 melanoma = system: UACC-257 melanoma
UACC-62 melanoma = system: UACC-62 melanoma
COLO 205 colon = system: COLO 205 colon
IGROV1 ovarian = system: IGROV1 ovarian
NCI-H460 lung = system: NCI-H460 lung
OVCAR-5 ovarian = system: OVCAR-5 ovarian
SK-MEL-2 melanoma = system: SK-MEL-2 melanoma
UO-31 renal = system: UO-31 renal

SMILES: C(=N\c1cc2cc(Sc3ccccc3)ccc2[nH]1)/c1ccccc1
- TGI (786-0 renal): > 12.5 µM
- TGI (A498 renal): > 12.5 µM
- TGI (A549 NSCLC): > 12.5 µM
- TGI (ACHN renal): > 12.5 µM
- TGI (BT-549 breast): > 12.5 µM
- TGI (CAKI-1 renal): > 12.5 µM
- TGI (CCRF-CEM leukemia): > 12.5 µM
- TGI (DU-145 prostate): > 12.5 µM
- TGI (EKVX NSCLC): > 12.5 µM
- TGI (HCC-2998 colon): > 12.5 µM
- TGI (HCT-116 colon): > 12.5 µM
- TGI (HCT-15 colon): > 12.5 µM
- TGI (HL-60(TB) leukemia): > 12.5 µM
- TGI (HOP-62 NSCLC): > 12.5 µM
- TGI (HOP-92 NSCLC): > 12.5 µM
- TGI (HS 578T breast): > 12.5 µM
- TGI (HT29 colon): > 12.5 µM
- TGI (K-562 leukemia): > 12.5 µM
- TGI (KM12 colon): > 12.5 µM
- TGI (LOX IMVI melanoma): > 12.5 µM
- TGI (M14 melanoma): > 12.5 µM
- TGI (MALME-3M melanoma): > 12.5 µM
- TGI (MCF7 breast): > 12.5 µM
- TGI (MDA-MB-435): > 12.5 µM
- TGI (MDA-N): > 12.5 µM
- TGI (MOLT-4 leukemia): > 12.5 µM
- TGI (NCI-H23 lung): > 12.5 µM
- TGI (NCI-H522 lung): > 12.5 µM
- TGI (NCI/ADR-RES ovarian): > 12.5 µM
- TGI (OVCAR-3 ovarian): > 12.5 µM
- TGI (OVCAR-4 ovarian): > 12.5 µM
- TGI (OVCAR-8 ovarian): > 12.5 µM
- TGI (PC-3 prostate): > 12.5 µM
- TGI (RPMI-8226 leukemia): > 12.5 µM
- TGI (RXF 393 renal): > 12.5 µM
- TGI (SF-268 CNS): > 12.5 µM
- TGI (SF-295 CNS): > 12.5 µM
- TGI (SF-539 CNS): > 12.5 µM
- TGI (SK-MEL-28 melanoma): > 12.5 µM
- TGI (SK-MEL-5 melanoma): > 12.5 µM
- TGI (SN12C renal): > 12.5 µM
- TGI (SNB-19 CNS): > 12.5 µM
- TGI (SNB-75 CNS): > 12.5 µM
- TGI (SR leukemia): > 12.5 µM
- TGI (SW-620 colon): > 12.5 µM
- TGI (T-47D breast): > 12.5 µM
- TGI (UACC-257 melanoma): > 12.5 µM
- TGI (UACC-62 melanoma): > 12.5 µM

SMILES: CCC(=O)Nc1cccc(NC(=O)c2c(Cl)c(Cl)c(Cl)c(Cl)c2-c2nc3ccccc3[nH]2)c1
- TGI (786-0 renal): > 100 µM
- TGI (A498 renal): > 100 µM
- TGI (A549 NSCLC): > 100 µM
- TGI (ACHN renal): > 100 µM
- TGI (BT-549 breast): > 100 µM
- TGI (CAKI-1 renal): > 100 µM
- TGI (CCRF-CEM leukemia): > 100 µM
- TGI (COLO 205 colon): > 100 µM
- TGI (DU-145 prostate): > 100 µM
- TGI (EKVX NSCLC): > 100 µM
- TGI (HCC-2998 colon): > 100 µM
- TGI (HCT-116 colon): > 100 µM
- TGI (HCT-15 colon): > 100 µM
- TGI (HL-60(TB) leukemia): > 100 µM
- TGI (HOP-92 NSCLC): 66.5 µM
- TGI (HS 578T breast): > 100 µM
- TGI (HT29 colon): > 100 µM
- TGI (IGROV1 ovarian): > 100 µM
- TGI (K-562 leukemia): > 100 µM
- TGI (KM12 colon): > 100 µM
- TGI (LOX IMVI melanoma): > 100 µM
- TGI (M14 melanoma): > 100 µM
- TGI (MALME-3M melanoma): > 100 µM
- TGI (MCF7 breast): > 100 µM
- TGI (MDA-MB-435): > 100 µM
- TGI (MDA-N): > 100 µM
- TGI (MOLT-4 leukemia): > 100 µM
- TGI (NCI-H23 lung): > 100 µM
- TGI (NCI-H460 lung): > 100 µM
- TGI (NCI-H522 lung): > 100 µM
- TGI (NCI/ADR-RES ovarian): > 100 µM
- TGI (OVCAR-3 ovarian): > 100 µM
- TGI (OVCAR-4 ovarian): > 100 µM
- TGI (OVCAR-5 ovarian): > 100 µM
- TGI (OVCAR-8 ovarian): > 100 µM
- TGI (PC-3 prostate): > 100 µM
- TGI (RPMI-8226 leukemia): > 100 µM
- TGI (RXF 393 renal): > 100 µM
- TGI (SF-268 CNS): > 100 µM
- TGI (SF-295 CNS): > 100 µM
- TGI (SF-539 CNS): > 100 µM
- TGI (SK-MEL-2 melanoma): > 100 µM
- TGI (SK-MEL-28 melanoma): > 100 µM
- TGI (SK-MEL-5 melanoma): > 100 µM
- TGI (SN12C renal): > 100 µM
- TGI (SNB-19 CNS): > 100 µM
- TGI (SNB-75 CNS): > 100 µM
- TGI (SR leukemia): > 100 µM
- TGI (SW-620 colon): > 100 µM
- TGI (T-47D breast): > 100 µM
- TGI (UACC-257 melanoma): > 100 µM
- TGI (UACC-62 melanoma): > 100 µM
- TGI (UO-31 renal): > 100 µM
